According to patent EP4566598A1, “COMPOSITIONS PROVIDING SGLT2I AND BHB ACTIVITY AND METHODS OF USE TO TREAT HUMAN DISEASE” (priority 2023, dated 2025):
“And” between values parts separate entries of the source, which are not always exact repeats. Equal entries are not always repeated. Where two headings read alike, the source gives them in different places.

Columns and labels:
[1] = in vivo
[2] = cited from earlier work
[3] = high-fat diet fed mice; cited from earlier work
[4] = cited from earlier work; remark: listed apart in the source
[5] = cited from earlier work; remark: listed apart in the source
SGLT2 = target: T1, SGLT2 (Homo sapiens, UniProt P31639); conditions: cited from earlier work
T1 sequence (P31639 1-672): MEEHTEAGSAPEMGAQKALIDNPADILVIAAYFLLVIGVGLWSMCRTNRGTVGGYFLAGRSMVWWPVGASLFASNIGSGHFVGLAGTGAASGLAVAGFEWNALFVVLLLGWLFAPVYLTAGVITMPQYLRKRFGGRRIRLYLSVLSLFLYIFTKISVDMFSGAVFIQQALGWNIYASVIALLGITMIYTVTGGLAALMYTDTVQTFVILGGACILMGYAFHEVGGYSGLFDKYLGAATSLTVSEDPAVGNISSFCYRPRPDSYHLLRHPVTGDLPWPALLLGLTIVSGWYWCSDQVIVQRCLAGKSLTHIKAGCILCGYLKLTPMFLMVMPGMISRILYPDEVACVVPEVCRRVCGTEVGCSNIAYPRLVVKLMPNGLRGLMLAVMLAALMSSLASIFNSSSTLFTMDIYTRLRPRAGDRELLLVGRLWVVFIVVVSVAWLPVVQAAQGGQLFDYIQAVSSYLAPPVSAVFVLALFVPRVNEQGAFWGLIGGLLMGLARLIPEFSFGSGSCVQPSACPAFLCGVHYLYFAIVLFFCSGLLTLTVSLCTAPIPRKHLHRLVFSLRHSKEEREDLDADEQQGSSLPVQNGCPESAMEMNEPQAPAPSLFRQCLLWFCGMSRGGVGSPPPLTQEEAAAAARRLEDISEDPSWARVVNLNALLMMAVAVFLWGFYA

[6] = cited from earlier work; remark: listed apart in the source
AAA [7] = conditions: apoE-/- Ang II induction model; cited from earlier work
human VSMCs = conditions: dependent on TRAF3IP2/ROS/NLRP3/caspase-1; cited from earlier work
[8] = mice; cited from earlier work
[9] = test system: rat aortic smooth muscle cells; conditions: in vitro; cited from earlier work
abdominal PVAT = conditions: mice fed with Western diet; cited from earlier work
[10] = 28-day study, 28 volunteers; cited from earlier work
[11] = cited from earlier work; remark: listed apart in the source
AAA [12] = conditions: murine models; cited from earlier work
vSMCs = conditions: via ROS-Nrf2 pathway; cited from earlier work
AAA [13] = conditions: PPE induced AAA; cited from earlier work

With `C[C@@H](O)CC(=O)O` [R-BHB, R-beta hydroxybutyrate] the “persistence of BHB elevation” value [1] was ~ 2.5 hours.
In the case of `C[C@H](O)CC(=O)O` [S-BHB], the “stability in human plasma compared with R/D BHB” value ([2]; human plasma) is given as “far more stable”, the “sustained in plasma, relative to (D/R) BHB” value ([2]; plasma) is given as “more than 2 x” and the “persistence of BHB elevation” value [1] is given as 4 to 5 h.
In the case of `CCOc1ccc(Cc2cc([C@@H]3S[C@H](CO)[C@@H](O)[C@H](O)[C@H]3O)c(OC)cc2C)cc1` [Luseogliflozin], the “intimal hyperplasia after bilateral femoral artery wire injury” value [3] is listed as “reducing intimal hyperplasia”, the Bioavailability ([4]; female rats) is listed as 58.2% and the Cmax ([5]; in vivo) is listed as 119 ± 27.0 ng/mL. The “t1/2” value ([5]; in vivo) was 9.24 ± 0.928 h, the “tmax” value ([5]; in vivo) was 0.625 ± 0.354 h and the “SGLT2 selectivity over SGLT1” value (SGLT2) was 1650 fold. The Bioavailability ([6]; male dogs) was 97.2%.
For `OC[C@H]1O[C@@H](c2ccc(Cl)c(Cc3ccc(O[C@H]4CCOC4)cc3)c2)[C@H](O)[C@@H](O)[C@@H]1O` [Empagliflozin], the “effect on AAA” value (AAA [7]) is listed as “impedes AAA”, the “secretion of IL-1b and IL-18” value (human VSMCs) is listed as “inhibits” and the Bioavailability ([4]; rats) is listed as 31%. For the same compound, the Cmax ([5]; 10 mg dose) was 259 nM, the “t1/2” value ([5]; 10 mg dose) was 13.2 h and the “t1/2 (hours)” value ([5]; 10 mg dose) was 13.2 (10 mg dose); hours. For the same compound, the Cmax ([5]; 25 mg dose) was 687 nM, the “t1/2” value ([5]; 25 mg dose) was 13.3 h and the “t1/2 (hours)” value ([5]; 25 mg dose) was 13.3h (25 mg dose) hours. The “tmax” value ([5]; in vivo) was 1.5 h, the Bioavailability [8] was 90-97% and 90–97% and the “aortic smooth muscle cell proliferation” value [9] was “significantly decreased”. The Bioavailability ([6]; dogs) was 89%.
For `OC[C@H]1O[C@@H](c2ccc(F)c(Cc3cc4ccccc4s3)c2)[C@H](O)[C@@H](O)[C@@H]1O` [Ipragliflozin], the “t1/2 (hours)” value ([5]; 50 mg dose) is listed as 15-16 (50 mg dose) hours and 15–16 (50 mg dose) hours, the “tmax” value ([5]; 50 mg) is listed as 1 h and the Bioavailability ([5]; in vivo) is listed as 90%. For the same compound, the “SGLT2 selectivity over SGLT1” value (SGLT2) was 360 fold and the “inflammation, fibrosis, and adipocyte death of abdominal PVAT” value (abdominal PVAT) was “attenuated”.
For `C[C@@H](O)CCOC(=O)C[C@@H](C)O` [KE-BHB], the “effect on body weights or composition, fasting blood glucose, cholesterol, triglyceride, or electrolyte concentrations, blood gases or kidney function” value [10] is given as “no effect”.
In the case of `CCc1ccc(Cc2ccc3c(c2)[C@]2(OC3)O[C@H](CO)[C@@H](O)[C@H](O)[C@H]2O)cc1` [Tofogliflozin], the Cmax ([5]; 10 mg dose) is listed as 489 ng/mL, the “t1/2” value ([5]; 10 mg dose) is listed as 6.8 h and the Bioavailability ([5]; 10 mg) is listed as 97.50%. For the same compound, the “tmax” value ([5]; 10 mg) was 0.75 h, the Protein binding [11] was 83% and the “SGLT2 selectivity over SGLT1” value (SGLT2) was 2900 fold.
For `Nc1ccccc1NC(=O)c1ccc(CNC(=O)OCc2cccnc2)cc1` [MS-275], the “effect on AAA” value (AAA [12]) is given as “reduce AAA”.
In the case of `Cc1ccc([C@@H]2O[C@H](CO)[C@@H](O)[C@H](O)[C@H]2O)cc1Cc1ccc(-c2ccc(F)cc2)s1` [Canagliflozin], the “t1/2” value ([5]; 100 mg dose) is given as 10.6 h, the “t1/2 (hours)” value ([5]; 100 mg dose) is given as 10.6 (100 mg dose); hours and the Bioavailability ([5]; 300 mg dose) is given as 65% (300 mg dose). For the same compound, the “t1/2” value ([5]; 300 mg dose) was 13.1 h, the “t1/2 (hours)” value ([5]; 300 mg dose) was 13.1 (300 mg dose) hours and the “tmax” value ([5]; in vivo) was 1 to 2 h. For the same compound, the Protein binding [11] was 99%, the “SGLT2 selectivity over SGLT1” value (SGLT2) was 250 fold and the “expression of heme oxygenase-1” value (vSMCs) was “stimulates”.
For `CCOc1ccc(Cc2cc([C@@H]3O[C@H](CO)[C@@H](O)[C@H](O)[C@H]3O)ccc2Cl)cc1` [Dapagliflozin, (2S,3R,4R,5S,6R)-2-{4-chloro-3-[(4-ethoxyphenyl)methyl]phenyl}-6-(hydroxymethyl)oxane-3,4,5-triol], the “aneurysmal induction and expansion” value (AAA [13]) is listed as “significantly impeded”, the Bioavailability ([5]; in vivo) is listed as 78% and the “t1/2” value ([5]; in vivo) is listed as 12.9 h. The “tmax” value ([5]; in vivo) was 1 to 1.5 h and the “SGLT2 selectivity over SGLT1” value (SGLT2) was 1200 fold.
For `CCOc1ccc(Cc2cc([C@]34OC[C@](CO)(O3)[C@@H](O)[C@H](O)[C@H]4O)ccc2Cl)cc1` [Ertugliflozin], the Cmax ([5]; 15 mg dose) is listed as 268 ng/mL (15 mg dose), the Bioavailability ([5]; in vivo) is listed as 70-90% and the “t1/2” value ([5]; in vivo) is listed as 11 to 17 h. The “tmax” value ([5]; in vivo) was 0.5 to 1.5 h, the Protein binding [11] was 95% and the “SGLT2 selectivity over SGLT1” value (SGLT2) was 2000 fold.
